pIC50: −log10 of the molar value.
Columns and labels:
[1] = molecular target: T1, RPS6KA2(Kin.Dom.1-N-terminal) (Homo sapiens, UniProt Q15349); assay: KINOMEscan; type: binding; settings: 1 uM
T1 construct: RPS6KA2(Kin.Dom.1-N-terminal); purchased Ambit KINOMEscan (DiscoverX)
In short: (§1)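 Substrate-binding inhibition measured with compound present at 1 μM, single concentration, to pick out affected kinases.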

[2] = molecular target: T2, RPS6KA2(Kin.Dom.2-C-terminal) (Homo sapiens, UniProt Q15349); assay: KINOMEscan; type: binding; settings: 1 uM
T2 construct: RPS6KA2(Kin.Dom.2-C-terminal); purchased Ambit KINOMEscan (DiscoverX)
In short: as §1

[3] = molecular target: T3, NEK1 (Homo sapiens, UniProt Q96PY6); assay: SelectScreen in vitro kinase IC50; type: biochemical
T3 construct: purchased Ambit KINOMEscan (DiscoverX)
T3 sequence (Q96PY6 1-1258): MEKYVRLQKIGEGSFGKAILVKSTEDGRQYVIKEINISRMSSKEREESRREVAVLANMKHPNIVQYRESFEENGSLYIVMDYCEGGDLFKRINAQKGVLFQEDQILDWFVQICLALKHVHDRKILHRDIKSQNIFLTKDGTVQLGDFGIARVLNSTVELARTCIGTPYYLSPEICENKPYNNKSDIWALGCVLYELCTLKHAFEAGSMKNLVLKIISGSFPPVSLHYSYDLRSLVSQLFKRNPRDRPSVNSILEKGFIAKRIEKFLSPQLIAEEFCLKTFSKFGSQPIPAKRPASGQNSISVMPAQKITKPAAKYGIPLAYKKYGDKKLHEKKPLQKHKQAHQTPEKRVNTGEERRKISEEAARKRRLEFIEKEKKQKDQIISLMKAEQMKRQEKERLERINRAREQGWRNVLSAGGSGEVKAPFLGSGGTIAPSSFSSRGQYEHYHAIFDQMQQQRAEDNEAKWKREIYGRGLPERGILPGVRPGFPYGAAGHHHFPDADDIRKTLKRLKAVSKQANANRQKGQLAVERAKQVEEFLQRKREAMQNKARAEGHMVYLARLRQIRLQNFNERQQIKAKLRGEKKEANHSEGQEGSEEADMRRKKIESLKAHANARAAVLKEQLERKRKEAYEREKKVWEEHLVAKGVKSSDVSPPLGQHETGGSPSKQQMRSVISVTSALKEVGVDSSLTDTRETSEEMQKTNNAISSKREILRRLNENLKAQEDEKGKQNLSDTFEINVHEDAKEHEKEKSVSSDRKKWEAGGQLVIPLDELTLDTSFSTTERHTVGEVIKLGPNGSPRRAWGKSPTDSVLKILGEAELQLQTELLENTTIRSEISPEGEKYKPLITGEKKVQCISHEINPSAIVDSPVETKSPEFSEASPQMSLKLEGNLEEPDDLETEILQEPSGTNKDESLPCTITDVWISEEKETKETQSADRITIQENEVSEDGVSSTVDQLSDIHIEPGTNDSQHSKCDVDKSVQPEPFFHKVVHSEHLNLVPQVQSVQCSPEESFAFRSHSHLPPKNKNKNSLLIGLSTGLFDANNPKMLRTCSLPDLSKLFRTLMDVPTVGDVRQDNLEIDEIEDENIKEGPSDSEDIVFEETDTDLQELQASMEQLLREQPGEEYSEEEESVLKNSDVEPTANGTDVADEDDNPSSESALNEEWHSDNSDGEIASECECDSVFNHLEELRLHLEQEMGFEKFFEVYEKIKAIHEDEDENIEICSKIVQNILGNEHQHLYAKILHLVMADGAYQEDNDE
Experimental: First, we used Ambit's KINOMEscan™ technology to identify those kinases that are inhibited for substrate binding by the compounds, all assayed at 1 μM. Second, we used Invitrogen's SelectScreen® Biochemical Kinase Profiling Service to determine the in vitro IC50s for the compounds against specific kinases.

[4] = molecular target: T4, MST1R (Homo sapiens, UniProt Q04912); assay: KINOMEscan; type: binding; settings: 1 uM
T4 construct: purchased Ambit KINOMEscan (DiscoverX)
In short: as §1

[5] = molecular target: T5, RPS6KA3(Kin.Dom.1-N-terminal) (Homo sapiens, UniProt P51812); assay: KINOMEscan; type: binding; settings: 1 uM
T5 construct: RPS6KA3(Kin.Dom.1-N-terminal); purchased Ambit KINOMEscan (DiscoverX)
In short: as §1

[6] = molecular target: T6, LRRK2 (Homo sapiens, UniProt Q5S007); assay: KINOMEscan; type: binding; settings: LRRK2, 1 uM
T6 construct: purchased Ambit KINOMEscan (DiscoverX)
In short: as §1

[7] = molecular target: T7, CSNK1A1L (Homo sapiens, UniProt Q8N752); assay: KINOMEscan; type: binding; settings: 1 uM
T7 construct: purchased Ambit KINOMEscan (DiscoverX)
In short: as §1

[8] = molecular target: T8, NEK3 (Homo sapiens, UniProt P51956); assay: KINOMEscan; type: binding; settings: NEK3, 1 uM
T8 construct: purchased Ambit KINOMEscan (DiscoverX)
In short: as §1

[9] = molecular target: T9, ABL1(H396P)-phosphorylated (Homo sapiens, UniProt P00519, H396P); assay: KINOMEscan; type: binding; settings: 1 uM
T9 construct: purchased Ambit KINOMEscan (DiscoverX)
In short: as §1

[10] = molecular target: T10, ABL1(F317L)-phosphorylated (Homo sapiens, UniProt P00519, F317L); assay: KINOMEscan; type: binding; settings: 1 uM
T10 construct: purchased Ambit KINOMEscan (DiscoverX)
In short: as §1

[11] = molecular target: T11, TRPM6 (Homo sapiens, UniProt Q9BX84); assay: KINOMEscan; type: binding; settings: TRPM6, 1 uM
T11 construct: purchased Ambit KINOMEscan (DiscoverX)
In short: as §1

[12] = molecular target: T12, SRC (Homo sapiens, UniProt P12931); assay: KINOMEscan; type: binding; settings: 1 uM
T12 construct: purchased Ambit KINOMEscan (DiscoverX)
In short: as §1

[13] = molecular target: T13, MYLK4 (Homo sapiens, UniProt Q86YV6); assay: KINOMEscan; type: binding; settings: MYLK4, 1 uM
T13 construct: purchased Ambit KINOMEscan (DiscoverX)
In short: as §1

[14] = molecular target: T14, MTOR (Homo sapiens, UniProt P42345); assay: KINOMEscan; type: binding; settings: 1 uM
T14 construct: purchased Ambit KINOMEscan (DiscoverX)
In short: as §1

[15] = molecular target: T15, ZAK (Homo sapiens, UniProt Q9NYL2); assay: KINOMEscan; type: binding; settings: 1 uM
T15 construct: purchased Ambit KINOMEscan (DiscoverX)
In short: as §1

T15 sequence (Q9NYL2 whole entry): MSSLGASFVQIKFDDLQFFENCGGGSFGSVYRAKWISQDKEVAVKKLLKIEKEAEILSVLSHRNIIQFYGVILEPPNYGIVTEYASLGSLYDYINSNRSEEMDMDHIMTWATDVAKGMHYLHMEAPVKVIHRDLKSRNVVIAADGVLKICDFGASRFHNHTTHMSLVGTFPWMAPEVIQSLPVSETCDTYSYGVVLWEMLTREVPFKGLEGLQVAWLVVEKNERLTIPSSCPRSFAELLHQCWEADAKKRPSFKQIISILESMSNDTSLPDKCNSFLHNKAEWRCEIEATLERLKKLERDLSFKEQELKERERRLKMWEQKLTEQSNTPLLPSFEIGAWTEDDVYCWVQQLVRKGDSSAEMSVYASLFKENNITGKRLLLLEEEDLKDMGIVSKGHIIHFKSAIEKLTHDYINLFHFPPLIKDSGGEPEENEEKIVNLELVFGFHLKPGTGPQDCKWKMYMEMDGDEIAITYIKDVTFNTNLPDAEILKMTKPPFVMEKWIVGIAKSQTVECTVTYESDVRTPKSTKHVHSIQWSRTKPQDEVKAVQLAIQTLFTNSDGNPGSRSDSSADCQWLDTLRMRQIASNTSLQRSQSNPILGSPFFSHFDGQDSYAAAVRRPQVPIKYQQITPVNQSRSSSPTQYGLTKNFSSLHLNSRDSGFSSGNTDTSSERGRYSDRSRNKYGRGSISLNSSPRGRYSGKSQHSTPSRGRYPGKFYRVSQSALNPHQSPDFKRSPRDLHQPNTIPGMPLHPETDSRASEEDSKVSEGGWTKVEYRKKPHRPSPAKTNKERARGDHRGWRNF
T1 sequence (Q15349 1-388 limits assumed): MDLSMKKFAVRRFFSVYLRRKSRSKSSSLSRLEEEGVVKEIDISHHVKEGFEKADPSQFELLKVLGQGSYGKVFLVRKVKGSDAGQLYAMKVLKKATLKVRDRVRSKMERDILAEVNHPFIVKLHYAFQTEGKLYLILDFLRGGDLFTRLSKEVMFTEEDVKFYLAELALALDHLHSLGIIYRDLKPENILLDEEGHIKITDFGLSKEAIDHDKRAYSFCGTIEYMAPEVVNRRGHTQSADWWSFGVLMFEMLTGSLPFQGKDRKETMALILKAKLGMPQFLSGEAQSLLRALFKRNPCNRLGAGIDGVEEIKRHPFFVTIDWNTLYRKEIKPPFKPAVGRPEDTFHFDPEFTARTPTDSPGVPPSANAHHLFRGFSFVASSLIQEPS
T2 sequence (Q15349 389-733 limits assumed): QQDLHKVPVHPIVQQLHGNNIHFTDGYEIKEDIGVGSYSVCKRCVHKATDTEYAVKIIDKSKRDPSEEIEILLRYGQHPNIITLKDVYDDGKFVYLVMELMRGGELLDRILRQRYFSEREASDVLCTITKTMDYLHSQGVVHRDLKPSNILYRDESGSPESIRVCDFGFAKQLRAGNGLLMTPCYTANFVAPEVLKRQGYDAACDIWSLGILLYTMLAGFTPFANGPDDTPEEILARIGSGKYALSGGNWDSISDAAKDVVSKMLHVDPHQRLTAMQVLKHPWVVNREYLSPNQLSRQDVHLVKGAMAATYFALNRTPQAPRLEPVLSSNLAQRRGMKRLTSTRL
T13 sequence (Q86YV6 whole entry): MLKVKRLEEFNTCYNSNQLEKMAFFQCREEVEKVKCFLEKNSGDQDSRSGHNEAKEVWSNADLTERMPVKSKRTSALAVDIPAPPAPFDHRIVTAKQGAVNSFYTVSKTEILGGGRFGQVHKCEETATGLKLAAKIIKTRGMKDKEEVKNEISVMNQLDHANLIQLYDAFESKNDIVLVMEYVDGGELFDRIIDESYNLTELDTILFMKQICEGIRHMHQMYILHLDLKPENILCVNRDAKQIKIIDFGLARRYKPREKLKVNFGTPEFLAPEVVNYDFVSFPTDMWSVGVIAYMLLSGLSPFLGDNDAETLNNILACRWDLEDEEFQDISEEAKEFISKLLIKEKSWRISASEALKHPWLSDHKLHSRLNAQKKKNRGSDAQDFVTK
T5 sequence (P51812 1-397 limits assumed): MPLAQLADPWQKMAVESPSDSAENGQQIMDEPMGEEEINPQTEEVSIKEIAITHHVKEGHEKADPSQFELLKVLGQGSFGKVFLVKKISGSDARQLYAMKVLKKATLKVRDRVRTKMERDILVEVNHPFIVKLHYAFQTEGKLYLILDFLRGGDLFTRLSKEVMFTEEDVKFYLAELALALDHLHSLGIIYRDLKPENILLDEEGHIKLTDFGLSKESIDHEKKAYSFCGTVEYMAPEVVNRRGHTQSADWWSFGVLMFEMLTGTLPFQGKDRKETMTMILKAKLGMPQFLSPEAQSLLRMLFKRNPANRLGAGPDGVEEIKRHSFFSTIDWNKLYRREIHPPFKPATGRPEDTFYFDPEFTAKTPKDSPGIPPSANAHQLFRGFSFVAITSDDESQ
T11 sequence (Q9BX84 whole entry): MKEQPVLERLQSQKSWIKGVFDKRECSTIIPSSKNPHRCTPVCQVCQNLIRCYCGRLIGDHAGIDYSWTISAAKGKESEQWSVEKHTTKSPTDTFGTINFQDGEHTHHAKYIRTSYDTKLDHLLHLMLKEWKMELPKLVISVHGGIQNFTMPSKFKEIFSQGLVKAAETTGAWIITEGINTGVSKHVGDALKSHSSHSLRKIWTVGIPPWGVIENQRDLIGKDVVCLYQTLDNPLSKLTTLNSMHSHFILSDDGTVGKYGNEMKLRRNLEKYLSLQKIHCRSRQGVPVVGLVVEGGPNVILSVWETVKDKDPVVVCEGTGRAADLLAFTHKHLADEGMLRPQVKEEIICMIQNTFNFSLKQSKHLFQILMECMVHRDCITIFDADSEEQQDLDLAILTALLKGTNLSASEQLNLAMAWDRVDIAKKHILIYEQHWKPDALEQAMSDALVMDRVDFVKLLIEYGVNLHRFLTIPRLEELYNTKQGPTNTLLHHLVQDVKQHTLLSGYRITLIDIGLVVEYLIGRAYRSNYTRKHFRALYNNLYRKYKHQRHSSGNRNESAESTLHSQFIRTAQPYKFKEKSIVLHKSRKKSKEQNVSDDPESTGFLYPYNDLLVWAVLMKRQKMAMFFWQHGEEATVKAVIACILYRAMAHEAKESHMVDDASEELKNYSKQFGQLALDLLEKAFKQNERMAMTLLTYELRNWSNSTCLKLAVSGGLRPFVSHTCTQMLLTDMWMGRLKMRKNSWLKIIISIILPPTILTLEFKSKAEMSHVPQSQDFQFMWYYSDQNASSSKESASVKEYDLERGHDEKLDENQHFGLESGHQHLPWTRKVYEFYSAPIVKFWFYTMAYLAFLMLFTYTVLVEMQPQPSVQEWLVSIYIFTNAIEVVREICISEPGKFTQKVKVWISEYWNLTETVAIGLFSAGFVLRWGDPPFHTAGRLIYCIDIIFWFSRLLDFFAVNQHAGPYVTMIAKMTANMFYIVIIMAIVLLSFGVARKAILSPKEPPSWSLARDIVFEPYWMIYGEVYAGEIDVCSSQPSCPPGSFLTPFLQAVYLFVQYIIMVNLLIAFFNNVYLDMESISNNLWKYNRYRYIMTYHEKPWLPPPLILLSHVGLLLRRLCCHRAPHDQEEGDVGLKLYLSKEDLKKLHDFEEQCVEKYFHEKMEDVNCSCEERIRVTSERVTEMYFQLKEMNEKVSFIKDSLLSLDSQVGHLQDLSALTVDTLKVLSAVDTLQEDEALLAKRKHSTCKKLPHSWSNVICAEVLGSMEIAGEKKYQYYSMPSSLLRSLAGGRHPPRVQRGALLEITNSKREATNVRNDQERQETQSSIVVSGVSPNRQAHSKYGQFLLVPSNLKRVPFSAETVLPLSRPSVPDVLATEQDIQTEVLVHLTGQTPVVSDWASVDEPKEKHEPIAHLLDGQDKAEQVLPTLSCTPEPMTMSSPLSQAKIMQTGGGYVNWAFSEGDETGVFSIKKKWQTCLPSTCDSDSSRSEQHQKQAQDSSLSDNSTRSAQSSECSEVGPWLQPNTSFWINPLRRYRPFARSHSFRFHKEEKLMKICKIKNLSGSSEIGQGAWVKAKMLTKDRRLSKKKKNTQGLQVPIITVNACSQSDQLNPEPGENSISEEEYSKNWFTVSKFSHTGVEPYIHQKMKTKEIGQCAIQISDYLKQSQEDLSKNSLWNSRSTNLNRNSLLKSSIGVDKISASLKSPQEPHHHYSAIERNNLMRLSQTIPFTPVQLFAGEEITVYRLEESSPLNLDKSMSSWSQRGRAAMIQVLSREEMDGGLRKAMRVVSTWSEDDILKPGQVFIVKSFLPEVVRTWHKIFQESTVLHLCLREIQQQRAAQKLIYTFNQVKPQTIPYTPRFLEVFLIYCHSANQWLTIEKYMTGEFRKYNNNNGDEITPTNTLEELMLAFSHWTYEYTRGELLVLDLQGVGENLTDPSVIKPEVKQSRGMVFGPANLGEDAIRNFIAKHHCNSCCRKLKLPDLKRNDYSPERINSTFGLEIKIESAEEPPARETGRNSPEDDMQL
T7 sequence (Q8N752 whole entry): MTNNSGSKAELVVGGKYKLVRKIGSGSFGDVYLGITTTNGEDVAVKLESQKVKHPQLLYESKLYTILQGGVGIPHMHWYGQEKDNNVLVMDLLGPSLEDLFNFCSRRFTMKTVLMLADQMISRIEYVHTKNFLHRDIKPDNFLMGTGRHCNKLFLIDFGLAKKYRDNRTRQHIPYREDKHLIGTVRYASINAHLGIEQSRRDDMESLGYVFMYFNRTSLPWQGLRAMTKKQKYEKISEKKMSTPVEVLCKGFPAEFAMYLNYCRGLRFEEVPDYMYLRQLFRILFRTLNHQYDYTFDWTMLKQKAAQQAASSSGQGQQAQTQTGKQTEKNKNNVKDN

`COc1ccc(-c2cc3nccn3c(Nc3ncccc3C(N)=O)n2)cc1OC.Cl.Cl` [BAY61-3606, 2-[7-(3,4-dimethoxyphenyl)-imidazo [1,2-c]pyrimidin-5-ylamino] nicotinamide dihydrochloride, reference compound] was tested, and the “% binding compared to no inhibitor control” value [1] was 92%, the “% binding compared to no inhibitor control” value [2] was 89% and the pIC50 [3] was 6.80.

With `COc1ccccc1Nc1nc(-c2ccc(OC)c(OC)c2)cc2nccn12` [BAY derivative 6] the “% binding compared to no inhibitor control” value [4] was 100%, the “% binding compared to no inhibitor control” value [5] was 96% and the “% binding compared to no inhibitor control” value [6] was 95%. The “% binding compared to no inhibitor control” value [7] was 100%, the “% binding compared to no inhibitor control” value [8] was 100% and the “% binding compared to no inhibitor control” value [9] was 100%. For the same compound, the “% binding compared to no inhibitor control” value [10] was 100%, the “% binding compared to no inhibitor control” value [11] was 95% and the “% binding compared to no inhibitor control” value [12] was 51%. The “% binding compared to no inhibitor control” value [13] was 100%, the “% binding compared to no inhibitor control” value [14] was 67% and the “% binding compared to no inhibitor control” value [15] was 92%.

— article PMC3399817 (PLoS ONE, 2012)
